One data set has as its target T1, human CaV1.2 (Homo sapiens, UniProt Q13936).
T1 construct: expressed in transfected cells; host or cells: Flp-In 293 T-Rex (HEK293), monoclonal CaV1.2-HEK293(AUX) clone 2-19B; doxycycline-induced auxiliary subunits
In words: Sophion QPatch dose-response assay, whole-cell voltage clamp of barium currents in CaV1.2-HEK293(AUX) cells. The format is cell-based. The conditions noted are these: Table 9, n = 1 unless * n = 2; for EC50: 6-point dose response, 10 determinations per concentration; for Qpatch Emax: maximal fold change of peak inward current. The text has this: The monoclonal CaV1.2-HEK293(AUX) cell line constitutively expresses human CaV1.2 alpha1C (α1C) subunit (CACNA1C) and has doxycycline-inducible expression of the alpha2delta (α2Δ2) auxiliary subunit (CACNA2D2) and beta2 (02) auxiliary subunit (CACNB2). To generate the cell line, expression vectors pcDNA5.0/FRT-TO-CACNA2D2-FCS-P2A-CACNB2 and pCMV6-entry-CACNA1C were established via gene synthesis and cloning. Here, pcDNA5.0/FRT-TO plasmid is from Invitrogen, pCMV6-entry is from Origene, FCS stands for Furin Cleavage Site, P2A is a peptide self-cleavage sequence derived from porcine teschovirus-1, and FRT is the Flippase recognition target site. Next, parental line Flp-In™ 293 T-Rex (Invitrogen) was transfected with pcDNA5.0/FRT-TO-CACNA2D2-FCS-P2A-CACNB2 and Flippase vector pOG44 (Invitrogen) to establish targeted integration of the CACNA2D2-FCS-P2A-CACNB2 expression cassette into the pre-engineered FRT site in Flp-In™ 293 T-Rex. This intermediate cell line was then transfected with pCMV6-entry-CACNA1C to establish stable CACNA1C expression. Clonal isolation was achieved under Neomycin selection.
Electrophysiological Characterization of CaV1.2 Activators Using CaV1.2-HEK293(AUX) Cell Line and QPatch
24 hours prior an electrophysiology experiment, doxycycline (1 μg/ml) was added to the growth medium (Table 6), and 25 μM of verapamil was co-applied to prevent calcium influx triggered cell death. Cell confluency should reach 70%-80% right before the experiment. To harvest cells (from a T175 cm^2 flask as an example), growth media were removed completely, and the cells were rinsed with 10 mL of D-PBS. D-PBS was aspirated, and 10 mL of Detachin (Genlantis) was added and the plate was placed in a 37° C. incubator for 10 minutes. Detached cells were placed into a 15 mL conical tube and spun at 1000 rpm for 2 minutes. Supernatant was removed, and cells were re-suspended in QPatch complete media (Table 7) to desired cell density of 1.5-3 million cells per QPatch run. Each experimental run uses 1.5 mL of cells.
The cells suspension was taken to the Sophion QPatch platform that uses whole-cell voltage clamp to measure barium currents conducted through CaV1.2 on single-hole QPlates. Extracellular and intracellular patch clamp solutions are described in Tables 7 and 8, respectively. A dose-response assay protocol was used to determine the maximal fold change of peak inward current (Emax) and potency (EC50) of each compound. The protocol had eight liquid periods. The first liquid period was to stabilize current amplitude, which was monitored using repetitive 200-ms voltage pulses stepping from −80 mV to 0 mV. The second liquid period was to determine baseline current amplitude in the presence of vehicle control, using a single 20-ms voltage pulse stepping from −80 mV to 0 mV. The third through eighth liquid periods were used to ascertain a 6-dose response to compound treatments, also using single 20-ms voltage pulses stepping from −80 mV to 0 mV. The EC50 was generated using the following equation Iconcentration=Ibase+(Ifull−Ibase)*c^n/(XC50^n+c^n), where c is the concentration and n is the Hill coefficient constant. Ifull is the maximal current achievable, and Ibase is 0. A channel biophysics assay protocol was used to determine channel gating properties including current-voltage relationship (IV curves), half-way channel activation voltage (V1/2), rate of channel inactivation (tau), and amplitude of tail current. Among these, V1/2 was derived from fitting equation G(V)=Gvmin+(Gvmax−Gvmin)/(1+exp(−(V−V½)/Vslope)), where G stands for conductance, Gvmin equals 0, Gvmax is the maximal conductance, and Vslope is a slope factor. G(V) was pre-calculated from equation G(V)=I(V)/(V−0.06), for each experimentally applied depolarization potential (V) and the corresponding current amplitude (I(V)), and 0.06 in the equation was the experimentally determined reversal potential in volts. The protocol had four liquid periods.

Data set [1] can be described thus: Compound exposure in wild-type mice (brain and blood levels). The format is in vivo, C57BL/6J male mice. Particulars: Table 9, mice, i.p., one hour after administration; for Kp at 1 h: male, C57BL/6J, mouse, brain (cerebellum) / blood, ip, read-out: Brain:blood ratio. How it is done:
Compound administration and brain tissue collection. Wild-type C57BL/6J male mice were obtained from Jackson laboratories (Bar Harbor, ME). The acute, single-dose effects of CaV1.2 activators of the present disclosure were evaluated in male eight-week old mice (n=6 mice per compound). Each compound was dissolved in 10% PEG300, 10% Solutol, 10% Cremophore EL, and 70% Phosphate Buffered Saline and administered intraperitoneal (i.p.) at a concentration of 1 mg/kg up to 30 mg/kg depending on the compound. Animals were euthanized one hour after compound administration via exsanguination under deep anesthesia. Blood was collected in EDTA tubes for downstream analysis of drug levels. Brains were rapidly removed from the skull, and the cerebral cortex and cerebellum were regionally dissected. Cerebellar samples were snap frozen in liquid nitrogen to assess compound exposure. Cortical samples for cFos assessment were placed in 500 μl of RNAlater solution (ThermoFisher) to preserve the integrity of RNA in the sample. Samples remained in RNAlater for at least 24 hours at 4° C. before moving to −80° C. for storage before processing.
Quantification of compound exposure. Cerebellar tissue samples were homogenized in 4 ml of 20% acetonitrile and 80% Phosphate buffered saline for every 1 g of tissue (5× dilution). Tissue was homogenized using either of the following three methods: hand held probe system, TissueLyser system with 5 mm steel bead at a frequency of 30 s^−1 for 4 min, or OMNI Bead Ruptor Elite homogenizer for 30 seconds to 1 minute depending on tissue type. Tissue samples were added to a 96-well plate (12.5 uL sample) and processed for quantification by mass spectrometry.

The source of these data is patent publication US20250304594A1, “METHYL (R)-2-(FLUOROMETHYL)-5-OXO-4-PHENYL-4,5,6,7-TETRAHYDRO-1H-CYCLOPENTA[B]PYRIDINE-3-CARBOXYLATE AND METHYL (R)-2-(FLUOROMETHYL)-5-OXO-4-PHENYL-1,4,5,7-TETRAHYDROFURO[3,4-B]PYRIDINE-3-CARBOXYLATE AS Cav1,2 ACTIVATORS” (Novartis AG, priority 2020, published 2025).

T1 sequence (Q13936 1-2138 isoform Q13936-23): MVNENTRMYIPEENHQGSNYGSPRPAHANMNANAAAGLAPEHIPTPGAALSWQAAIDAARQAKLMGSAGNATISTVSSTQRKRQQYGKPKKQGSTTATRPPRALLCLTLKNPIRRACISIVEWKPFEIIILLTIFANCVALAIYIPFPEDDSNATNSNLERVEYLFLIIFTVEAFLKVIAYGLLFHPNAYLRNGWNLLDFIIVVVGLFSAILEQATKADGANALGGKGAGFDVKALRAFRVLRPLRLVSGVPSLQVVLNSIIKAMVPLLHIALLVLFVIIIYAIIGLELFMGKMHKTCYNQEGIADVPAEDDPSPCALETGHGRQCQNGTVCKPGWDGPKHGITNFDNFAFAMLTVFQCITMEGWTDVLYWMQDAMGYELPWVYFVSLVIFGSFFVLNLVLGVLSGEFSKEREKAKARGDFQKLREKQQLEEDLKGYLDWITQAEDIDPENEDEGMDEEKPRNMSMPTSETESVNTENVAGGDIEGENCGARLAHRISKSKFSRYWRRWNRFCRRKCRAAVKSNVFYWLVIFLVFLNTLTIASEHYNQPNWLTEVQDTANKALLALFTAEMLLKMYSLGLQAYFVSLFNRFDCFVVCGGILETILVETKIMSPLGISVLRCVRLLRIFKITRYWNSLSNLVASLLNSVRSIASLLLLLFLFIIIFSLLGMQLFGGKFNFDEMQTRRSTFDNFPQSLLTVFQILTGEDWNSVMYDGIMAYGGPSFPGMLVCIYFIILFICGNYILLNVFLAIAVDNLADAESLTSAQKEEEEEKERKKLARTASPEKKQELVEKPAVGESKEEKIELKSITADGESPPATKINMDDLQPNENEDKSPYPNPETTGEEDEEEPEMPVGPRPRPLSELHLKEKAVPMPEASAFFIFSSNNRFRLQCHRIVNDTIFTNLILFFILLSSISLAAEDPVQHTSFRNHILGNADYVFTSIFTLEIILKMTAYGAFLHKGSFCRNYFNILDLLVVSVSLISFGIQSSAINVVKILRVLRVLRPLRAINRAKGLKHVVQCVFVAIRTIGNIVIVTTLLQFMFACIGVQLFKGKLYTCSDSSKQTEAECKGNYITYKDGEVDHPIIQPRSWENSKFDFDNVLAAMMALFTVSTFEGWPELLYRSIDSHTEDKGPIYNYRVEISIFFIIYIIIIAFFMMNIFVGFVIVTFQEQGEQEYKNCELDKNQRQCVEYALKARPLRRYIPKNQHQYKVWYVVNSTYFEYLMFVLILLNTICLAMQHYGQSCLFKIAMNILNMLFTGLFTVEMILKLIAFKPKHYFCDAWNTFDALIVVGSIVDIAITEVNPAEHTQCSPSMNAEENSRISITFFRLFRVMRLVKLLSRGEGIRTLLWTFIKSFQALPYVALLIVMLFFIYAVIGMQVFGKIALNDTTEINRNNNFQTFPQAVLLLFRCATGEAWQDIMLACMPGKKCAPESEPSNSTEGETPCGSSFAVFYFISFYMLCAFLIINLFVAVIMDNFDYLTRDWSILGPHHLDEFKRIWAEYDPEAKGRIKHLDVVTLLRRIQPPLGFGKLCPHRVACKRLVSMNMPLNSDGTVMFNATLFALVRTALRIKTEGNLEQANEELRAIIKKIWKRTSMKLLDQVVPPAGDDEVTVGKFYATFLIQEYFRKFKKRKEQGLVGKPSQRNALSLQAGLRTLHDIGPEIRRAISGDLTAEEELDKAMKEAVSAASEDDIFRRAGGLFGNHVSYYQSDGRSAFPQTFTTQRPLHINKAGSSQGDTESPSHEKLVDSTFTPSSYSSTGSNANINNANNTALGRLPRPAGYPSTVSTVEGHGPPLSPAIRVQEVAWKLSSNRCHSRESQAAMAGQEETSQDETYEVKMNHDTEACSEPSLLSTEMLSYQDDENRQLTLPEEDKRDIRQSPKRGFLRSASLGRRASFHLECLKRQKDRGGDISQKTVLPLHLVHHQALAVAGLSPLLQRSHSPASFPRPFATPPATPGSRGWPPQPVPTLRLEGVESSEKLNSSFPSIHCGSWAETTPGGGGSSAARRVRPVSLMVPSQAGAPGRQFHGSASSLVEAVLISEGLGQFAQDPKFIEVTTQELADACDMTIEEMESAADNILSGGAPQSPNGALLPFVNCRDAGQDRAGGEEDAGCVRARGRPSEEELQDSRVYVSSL
T1 sequence (Q9NY47 19-1001 partner limits assumed): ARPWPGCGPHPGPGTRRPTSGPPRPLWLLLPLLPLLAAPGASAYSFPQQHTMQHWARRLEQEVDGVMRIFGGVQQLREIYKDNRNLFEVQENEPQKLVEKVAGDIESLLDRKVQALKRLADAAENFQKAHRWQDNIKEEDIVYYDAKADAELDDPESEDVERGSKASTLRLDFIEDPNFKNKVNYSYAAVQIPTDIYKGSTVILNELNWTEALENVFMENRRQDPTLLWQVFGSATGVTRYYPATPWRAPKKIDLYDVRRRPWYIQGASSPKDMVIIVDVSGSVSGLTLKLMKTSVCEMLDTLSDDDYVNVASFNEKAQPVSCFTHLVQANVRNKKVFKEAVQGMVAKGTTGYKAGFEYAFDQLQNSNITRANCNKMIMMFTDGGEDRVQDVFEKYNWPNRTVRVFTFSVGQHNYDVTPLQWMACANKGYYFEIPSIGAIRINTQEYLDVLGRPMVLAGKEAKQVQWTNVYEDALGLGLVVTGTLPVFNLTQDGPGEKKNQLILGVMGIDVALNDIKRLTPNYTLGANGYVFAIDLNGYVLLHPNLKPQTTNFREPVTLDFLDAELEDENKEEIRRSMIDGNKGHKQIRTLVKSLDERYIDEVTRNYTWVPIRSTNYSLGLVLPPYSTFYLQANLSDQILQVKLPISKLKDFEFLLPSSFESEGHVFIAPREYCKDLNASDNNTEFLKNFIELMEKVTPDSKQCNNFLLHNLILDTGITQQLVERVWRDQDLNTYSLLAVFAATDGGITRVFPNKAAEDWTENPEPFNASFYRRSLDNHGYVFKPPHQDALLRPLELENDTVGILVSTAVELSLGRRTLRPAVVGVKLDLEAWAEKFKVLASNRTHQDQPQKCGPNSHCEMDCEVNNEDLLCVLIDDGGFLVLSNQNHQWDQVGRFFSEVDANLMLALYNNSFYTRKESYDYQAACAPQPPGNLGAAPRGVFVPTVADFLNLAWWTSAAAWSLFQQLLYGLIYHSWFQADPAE
T1 sequence (Q9NY47 1002-1150 partner limits assumed): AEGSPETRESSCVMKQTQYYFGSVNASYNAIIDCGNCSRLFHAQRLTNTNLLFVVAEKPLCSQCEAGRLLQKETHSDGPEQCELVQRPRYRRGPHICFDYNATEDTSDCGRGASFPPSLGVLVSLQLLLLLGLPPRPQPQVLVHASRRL
T1 sequence (Q08289 whole entry partner): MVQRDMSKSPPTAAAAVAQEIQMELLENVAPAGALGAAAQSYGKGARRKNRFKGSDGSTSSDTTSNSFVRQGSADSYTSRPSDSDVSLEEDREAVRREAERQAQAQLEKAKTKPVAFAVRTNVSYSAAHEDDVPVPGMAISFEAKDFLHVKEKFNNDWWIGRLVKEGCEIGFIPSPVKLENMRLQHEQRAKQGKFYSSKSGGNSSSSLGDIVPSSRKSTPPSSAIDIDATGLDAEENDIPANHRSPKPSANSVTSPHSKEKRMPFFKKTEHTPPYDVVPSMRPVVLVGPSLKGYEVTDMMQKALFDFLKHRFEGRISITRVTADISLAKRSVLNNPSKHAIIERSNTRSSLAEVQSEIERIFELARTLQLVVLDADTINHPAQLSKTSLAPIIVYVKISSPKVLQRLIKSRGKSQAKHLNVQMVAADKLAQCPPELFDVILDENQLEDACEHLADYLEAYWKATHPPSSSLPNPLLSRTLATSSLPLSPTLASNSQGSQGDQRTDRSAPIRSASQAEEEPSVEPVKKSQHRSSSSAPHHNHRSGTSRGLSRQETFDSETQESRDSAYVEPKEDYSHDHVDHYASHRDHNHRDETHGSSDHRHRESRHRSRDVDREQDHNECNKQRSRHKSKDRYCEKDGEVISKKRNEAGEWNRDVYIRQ

As usually defined, the EC50 is the concentration at which the effect is half-maximal. Read a high EC50 as lower potency in that assay. `COC(=O)C1=C(CF)NC2=C(C(=O)OC2)[C@H]1c1cccc(F)c1C(F)F` (single isomer, unassigned) [Example 15]: at human CaV1.2, the concentration giving a half-maximal response (EC50) worked out at 290 nM and the “Qpatch Emax” value was 1.3. Also, in data set [1], the Kp at 1 h was 1.7.
The matching figures for `COC(=O)C1=C(CF)NC2=C(C(=O)OC2)[C@H]1c1cccc(F)c1[C@H](F)CF` (single isomer, unassigned) [Example 6]: 17 nM, 1.4* and 1.5.
As for `COC(=O)C1=C(CF)NC2=C(C(=O)OC2)[C@H]1c1ccccc1OC(F)F` (single isomer, unassigned) [Example 9], on human CaV1.2, a half-maximal response (EC50) required 100 nM and the “Qpatch Emax” value came out at 1.5. Moreover, the Kp at 1 h in data set [1] was 1.5.
With `COC(=O)C1=C(CF)NC2=C(C(=O)OC2)[C@H]1c1cccc(F)c1C1CC1` (single isomer, unassigned) [Example 2], on human CaV1.2, the EC50 turned out to be 12 nM and the “Qpatch Emax” value amounted to 2.3. Also, the Kp at 1 h in data set [1] came out at 1.5.
Regarding `COC(=O)C1=C(CF)NC2=C(C(=O)OC2)[C@H]1c1cccc(F)c1C(F)(F)F` (single isomer, unassigned) [Example 17], at human CaV1.2, the concentration giving a half-maximal response (EC50) came to 120 nM and the “Qpatch Emax” value came to 1.2. In data set [1], the Kp at 1 h was determined as 2.1.
On to `COC(=O)C1=C(CF)NC2=C(C(=O)OC2)[C@H]1c1cc(F)cc(F)c1[C@H]1CC1(F)F` (single isomer, unassigned) [Example 4, Methyl (R)-4-(2-((R or S)-2,2-difluorocyclopropyl)-3,5-difluorophenyl)-2-(fluoromethyl)-5-oxo-1,4,5,7-tetrahydrofuro[3,4-b]pyridine-3-carboxylate], for which, at human CaV1.2, a half-maximal response (EC50) required 20 nM and the “Qpatch Emax” value amounted to 1.9. The “Brain:blood ratio” value in data set [1] came to 1.4.
`COC(=O)C1=C(CF)NC2=C(C(=O)OC2)[C@H]1c1cc(F)cc(F)c1C1CC1` (single isomer, unassigned) [Example 13]: on human CaV1.2, the response was half-maximal at 20 nM (EC50) and the “Qpatch Emax” value was 1.6*. Further, the Kp at 1 h in data set [1] was 3.5.
As to `COC(=O)C1=C(CF)NC2=C(C(=O)OC2)[C@H]1c1cccc(F)c1[C@H]1CC1(F)F` (single isomer, unassigned) [Example 1, methyl (R)-4-(2-((R or S)-2,2-difluorocyclopropyl)-3-fluorophenyl)-2-(fluoromethyl)-5-oxo-1,4,5,7-tetrahydrofuro[3,4-b]pyridine-3-carboxylate], on human CaV1.2, it took 24 nM to reach a half-maximal effect (EC50) and the “Qpatch Emax” value came out at 1.9. The Kp at 1 h in data set [1] came out at 2.9.
On to `COC(=O)C1=C(CF)NC2=C(C(=O)OC2)[C@H]1c1cc(F)cc(F)c1C(F)(F)F` (single isomer, unassigned) [Example 10], for which, on human CaV1.2, a half-maximal effect (EC50) was put at 40 nM and the “Qpatch Emax” value was determined as 1.8. In addition, the Kp at 1 h in data set [1] is 0.9.
`COC(=O)C1=C(CF)NC2=C(C(=O)OC2)[C@H]1c1cccc(F)c1[C@@H](C)F` (single isomer, unassigned) [Example 8]: at human CaV1.2, the EC50 worked out at 20 nM and the “Qpatch Emax” value came to 2.0. Also, in data set [1], the Kp at 1 h was 3.5.
For `COC(=O)C1=C(CF)NC2=C(C(=O)CC2)[C@H]1c1cccc(F)c1[C@@H](F)CF` (single isomer, unassigned) [Example 7, methyl (R)-4-(2-((R or S)-1,2-difluoroethyl)-3-fluorophenyl)-2-(fluoromethyl)-5-oxo-4,5,6,7-tetrahydro-1H-cyclopenta[b]pyridine-3-carboxylate], at human CaV1.2, the EC50 came to 30 nM and the “Qpatch Emax” value came to 1.8.
Turning to `COC(=O)C1=C(CF)NC2=C(C(=O)CC2)[C@H]1c1cccc(F)c1C1CC1` (single isomer, unassigned) [Example 28], on human CaV1.2, the half-maximal effective concentration (EC50) amounted to 60 nM and the “Qpatch Emax” value is listed as 1.9. Moreover, the Kp at 1 h in data set [1] was 1.1.
The like results for `COC(=O)C1=C(CF)NC2=C(C(=O)OC2)[C@H]1c1cc(F)cc(F)c1C(F)F` (single isomer, unassigned) [Example 18] were, in that order, 210 nM, 1.8 and 1.
In the case of `COC(=O)C1=C(CF)NC2=C(C(=O)OC2)[C@H]1c1cccc(F)c1CC(F)F` (single isomer, unassigned) [Example 11], on human CaV1.2, the response was half-maximal at 70 nM (EC50) and the “Qpatch Emax” value amounted to 2.0. In addition, the Kp at 1 h in data set [1] came out at 1.1.
The matching figures for `COC(=O)C1=C(CF)NC2=C(C(=O)OC2)[C@H]1c1cc(F)cc(F)c1[C@H](F)CF` (single isomer, unassigned) [Example 16, methyl (R)-4-(2-((R or S)-1,2-difluoroethyl)-3,5-difluorophenyl)-2-(fluoromethyl)-5-oxo-1,4,5,7-tetrahydrofuro[3,4-b]pyridine-3-carboxylate]: 10 nM, 1.5 and 3.2.
The like results for `COC(=O)C1=C(CF)NC2=C(C(=O)OC2)[C@H]1c1cc(F)ccc1C(F)(F)F` (single isomer, unassigned) [Example 23] were, in that order, 120 nM, 3.5 and 1.2.
On to `COC(=O)C1=C(CF)NC2=C(C(=O)OC2)[C@H]1c1cc(F)cc(F)c1[C@H]1CC1(F)F` (single isomer, unassigned) [Example 3, Methyl (R)-4-(2-((R or S)-2,2-difluorocyclopropyl)-3,5-difluorophenyl)-2-(fluoromethyl)-5-oxo-1,4,5,7-tetrahydrofuro[3,4-b]pyridine-3-carboxylate], for which, on human CaV1.2, the midpoint of the response, the EC50, lay at 50 nM and the “Qpatch Emax” value worked out at 1.6. Also, the Kp at 1 h in data set [1] came out at 2.8.
For the molecule `COC(=O)C1=C(CF)NC2=C(C(=O)OC2)[C@H]1c1cc(F)cc(F)c1[C@H](C)F` (single isomer, unassigned) [Example 5, methyl (R)-4-(3,5-difluoro-2-((R or S)-1-fluoroethyl)phenyl)-2-(fluoromethyl)-5-oxo-1,4,5,7-tetrahydrofuro[3,4-b]pyridine-3-carboxylate], at human CaV1.2, the EC50 stood at 20 nM and the “Qpatch Emax” value worked out at 1.9. For the same molecule, the Kp at 1 h in data set [1] was determined as 3.3.
